Reference: patent US10807968B2, “Substituted 2-(het)arylimidazolylcarboxyamides as pesticides” (Bayer CropScience Aktiengesellschaft, priority 2016, dated 2020)
Read-outs that look alike come from different tables or passages of the source.

Assays:
[1] = log P determination by HPLC on reversed-phase (C18) columns, OECD Guideline 117; type: physicochemical; conditions: for chromatographic logP: reversed-phase (C18) HPLC column
Description: The log P values were determined in accordance with OECD Guideline 117 (EC Directive 92/69/EEC) by HPLC (high-performance liquid chromatography) using reversed-phase (RP) columns (C18), by the following methods:
[a] The LC-MS determination in the acidic range was carried out at pH 2.7 with 0.1% aqueous formic acid and acetonitrile (contains 0.1% formic acid) as mobile phases; linear gradient from 10% acetonitrile to 95% acetonitrile.
[b] LC-MS determination in the neutral range was carried out at pH 7.8 with 0.001 molar aqueous ammonium hydrogencarbonate solution and acetonitrile as mobile phases; linear gradient from 10% acetonitrile to 95% acetonitrile.

Myzus persicae [2] = test: Myzus persicae - oral test; type: in vivo; conditions: after 5 days; for efficacy in % (aphids killed): 20 ppm; for pest or weed control at 20 ppm: Myzus persicae, 120 h, read-out: efficacy in % (aphids killed)
Description: Solvent: 100 parts by weight of acetone
Subsequently, the plates are sealed with parafilm, which a mixed population of green peach aphids (Myzus persicae) within a second microtitre plate is able to puncture and imbibe the solution through it.
After 5 days, the efficacy in % is determined. 100% means that all the aphids have been killed; 0% means that no aphids have been killed.

Myzus persicae [3] = test: Myzus persicae - spray test (Chinese cabbage leaf discs); type: in vivo; conditions: after 6 days; for pest or weed control at 500 g/ha: Myzus persicae, foliar, 144 h, read-out: efficacy in % (aphids killed)
Description: Myzus persicae—Spray Test
Solvent: 78 parts by weight of acetone • • 1.5 parts by weight of dimethylformamide
Emulsifier: alkylaryl polyglycol ether
To produce a suitable preparation of active compound, 1 part by weight of active compound is dissolved using the specified parts by weight of solvent and made up with water containing an emulsi fier concentration of 1000 ppm until the desired concentration is attained. To produce further test concentrations, the formulation is diluted with emulsifier-containing water.
Discs of Chinese cabbage leaves (Brassica pekinensis) infested by all stages of the green peach aphid (Myzus persicae) are sprayed with an active compound formulation of the desired concentration.
After 6 days, the efficacy in % is determined. 100% means that all the aphids have been killed; 0% means that no aphids have been killed.

[4] = pH 2.7, HPLC, acidic range pH 2.7, 0.1% aqueous formic acid/acetonitrile, read-out: logp-acidic
[5] = pH 7.8, HPLC, neutral range pH 7.8, 0.001 molar aqueous ammonium hydrogencarbonate/acetonitrile, read-out: logp-neutral
[6] = HPLC, acidic range pH 2.7, 0.1% aqueous formic acid/acetonitrile
[7] = HPLC, neutral range pH 7.8, 0.001 molar aqueous ammonium hydrogencarbonate/acetonitrile

logp-acidic ([1]; pH 2.7) | logp-neutral ([1]; pH 7.8) | SMILES | efficacy in % (aphids killed) (Myzus persicae [2]) | efficacy in % (aphids killed) (Myzus persicae [3]; 500 g/ha) | also measured
1.04 | 1.55 | COC(=O)c1cc(F)ccc1-c1ncc(C(=O)N(C)c2cccnc2)n1C [Example 29] | 100% | 90% | –
0.8 | 1.43 | CCOc1ncccc1-c1ncc(C(=O)N(C)c2cccnc2)n1C [Example 92] | 100% | 90% | –
0.75 | 1.1 | CN(C(=O)c1cnc(-c2ncccc2Cl)n1C)c1cccnc1 [Example 106] | 90% | 90% | –
0.93 | 1.33 | CSc1ncccc1-c1ncc(C(=O)N(C)c2cccnc2)n1C [Example 91] | 100% | 90% | –
1.69 | 1.95 | CCOc1ncc(-c2ncc(C(=O)N(CC)c3cccnc3)n2C)cc1C#N [Example 76] | 100% | 90% | –
0.91 | 1.38 | COc1ncc(F)cc1-c1ncc(C(=O)N(C)c2cccnc2)n1C [Example 101] | 100% | 100% | –
1.21 | 1.79 | CC(C)Oc1ccc(-c2ncc(C(=O)N(C)c3cccnc3)n2C)cn1 [Example 102] | 100% | 90% | –
0.58 | 1.25 | COc1ccc(-c2ncc(C(=O)N(C)c3cccnc3)n2C)cn1 [Example 103] | 100% | 100% | –
1.75 | 2 | COc1ncc(-c2ncc(C(=O)N(C)c3cccnc3)n2C)cc1C(F)(F)F [Example 95] | 100% | 100% | –
0.66 | 1.28 | COc1cc(-c2ncc(C(=O)N(C)c3cccnc3)n2C)cnc1OC [Example 93] | 100% | 90% | –
0.93 | 1.53 | CCOc1ccc(-c2ncc(C(=O)N(C)c3cccnc3)n2C)cn1 [Example 89] | 100% | 90% | –
0.75 | 1.08 | CN(C(=O)c1cnc(-c2cccc(S(C)(=O)=O)c2)n1C)c1cccnc1 [Example 22] | 100% | 100% | –
1.50 | 1.73 | CCOc1ncc(-c2ncc(C(=O)N(C)c3cccnc3)n2C)cc1C#N [Example 67] | 100% | 100% | –

Second part, the molecule before the results:

SMILES | logp-acidic ([1]; pH 2.7) | logp-neutral ([1]; pH 7.8) | efficacy in % (aphids killed) (Myzus persicae [2]) | efficacy in % (aphids killed) (Myzus persicae [3]; 500 g/ha) | also measured
COC(=O)c1cccc2c(-c3ncc(C(=O)N(C)c4cccnc4)n3C)cccc12 [Example 28] | 1.56 | 1.95 | 100% | 90% | –
CN(C(=O)c1cnc(-c2ccc(C#N)c(C(F)(F)F)c2)n1C)c1cccnc1 [Example 55] | – | – | – | – | chromatographic logP [1, 4]: 1.72; chromatographic logP [1, 5]: 1.92; pest or weed control at 20 ppm (Myzus persicae [2]): 100%; pest or weed control at 500 g/ha (Myzus persicae [3]; 500 g/ha): 90%
CN(C(=O)c1cnc(-c2ccccc2OCC(N)=O)n1C)c1cccnc1 [Example 104] | 0.23 | 1.03 | 100% | 100% | –
Cc1cc(C)cc(-c2ncc(C(=O)N(C)c3cccnc3)n2C)c1 [Example 8] | – | – | 100% | – | logp-acidic [1, 6]: 1.16; efficacy in % (aphids killed) (Myzus persicae [3]; 100 g/ha): 90%
CN(C(=O)c1cnc(-c2cccc(C#N)c2)n1C)c1cccnc1 [Example 58] | – | – | 100% | 100% | logp-acidic [1, 6]: 0.91; logp-neutral [1, 7]: 1.33
CN(C(=O)c1cnc(-c2cccn2C)n1C)c1cccnc1 [Example 14] | – | – | – | – | chromatographic logP [1, 4]: 0.62; pest or weed control at 20 ppm (Myzus persicae [2]): 100%; pest or weed control at 500 g/ha (Myzus persicae [3]; 500 g/ha): 90%
CN(C(=O)c1cnc(-c2cccc(SCC3CC3)c2)n1C)c1cccnc1 [Example 18] | 1.87 | 2.36 | 100% | 90% | –
CN(C(=O)c1cnc(-c2cnn(-c3ccc(F)cc3)c2)n1C)c1cccnc1 [Example 25] | 1.21 | 1.68 | 100% | 90% | –
CN(C(=O)c1cnc(-c2ccc(F)c(C#N)c2)n1C)c1cccnc1 [Example 63] | – | – | 100% | 90% | logp-acidic [1, 6]: 1.15; logp-neutral [1, 7]: 1.52
CN(C(=O)c1cnc(-c2cccnc2)n1C)c1cccnc1 [Example 7] | – | – | – | – | chromatographic logP [1, 4]: 0.18; pest or weed control at 20 ppm (Myzus persicae [2]): 100%; pest or weed control at 500 g/ha (Myzus persicae [3]; 500 g/ha): 90%
CC(C)n1cc(-c2ncc(C(=O)N(C)c3cccnc3)n2C)nn1 [Example 73] | 0.88 | 1.24 | 100% | 100% | –
CN(C(=O)c1cnc(-c2ccc(F)c3ccccc23)n1C)c1cccnc1 [Example 30] | 1.57 | 2.05 | 100% | 90% | –
CN(C(=O)c1cnc(-c2cccc3ccccc23)n1C)c1cccnc1 [Example 27] | 1.35 | 1.89 | 100% | 90% | –
CN(C(=O)c1cnc(-c2cccc(C(F)F)c2)n1C)c1cccnc1 [Example 48] | 1.22 | 1.65 | 100% | 100% | –
CN(C(=O)c1cnc(-c2ccccn2)n1C)c1cccnc1 [Example 47] | – | – | – | – | chromatographic logP [1, 4]: 0.74; chromatographic logP [1, 5]: 1.16; pest or weed control at 20 ppm (Myzus persicae [2]): 100%; pest or weed control at 500 g/ha (Myzus persicae [3]; 500 g/ha): 90%
CSc1cc(-c2ncc(C(=O)N(C)c3cccnc3)n2C)ccc1C [Example 23] | 1.43 | 2.03 | 100% | 100% | –
CN(C(=O)c1cnc(-c2cc(C#N)cc(C(F)(F)F)c2)n1C)c1cccnc1 [Example 61] | – | – | 100% | 100% | logp-acidic [1, 6]: 1.85; logp-neutral [1, 7]: 1.96
COc1ccc(C#N)cc1-c1ncc(C(=O)N(C)c2cccnc2)n1C [Example 62] | – | – | 100% | 100% | logp-acidic [1, 6]: 0.78; logp-neutral [1, 7]: 1.37
CN(C(=O)c1cnc(-c2cc(-c3ccccc3)no2)n1C)c1cccnc1 [Example 71] | – | – | – | – | chromatographic logP [1, 4]: 1.9; chromatographic logP [1, 5]: 2.37; pest or weed control at 20 ppm (Myzus persicae [2]): 100%; pest or weed control at 500 g/ha (Myzus persicae [3]; 500 g/ha): 100%
CN(C(=O)c1cnc(-c2cccc(CC(F)(F)F)c2)n1C)c1cccnc1 [Example 56] | – | 1.96 | 100% | 90% | –
CN(C(=O)c1cnc(-c2cccc(Cl)c2)n1C)c1cccnc1 [Example 10] | – | – | 100% | 90% | logp-acidic [1, 6]: 1.29
CN(C(=O)c1cnc(-c2cccc3ccoc23)n1C)c1cccnc1 [Example 80] | 0.97 | 1.62 | 100% | 100% | –
CN(C(=O)c1cnc(-c2ccccc2Cl)n1C)c1cccnc1 [Example 9] | – | – | 100% | 100% | logp-acidic [1, 6]: 1.10
